# Test results published in ChEMBL document CHEMBL1139835, “Novel quinolizidinyl derivatives as antiarrhythmic agents” (J Med Chem, 2007).
# How the values were obtained:
# [1] = Negative inotropic activity assessed as decrease in developed tension in isolated guinea pig left atrium; format: functional, tissue-based; conditions: Cavia porcellus, Cardiac atrium
# [2] = Negative inotropic activity assessed as decrease in developed tension in isolated guinea pig left atrium at 1 uM relative to control; format: functional, Cavia porcellus, Cardiac atrium; parameters: scale not given: the % may be the effect or the level left
# [3] = Activity against alternating current-induced arrhythmia in guinea pig left atrium at 100 uM; format: functional, Cavia porcellus, Cardiac atrium
# Aorta [4] = test: Inhibition of calcium-induced contraction of potassium ion depolarized guinea pig aortic strips at 100 uM; format: functional; conditions: Cavia porcellus
# [5] = Negative chronotropic activity assessed as decrease in atrial rate in isolated guinea pig right atrium at 100 uM relative to control; format: functional, Cavia porcellus, Cardiac atrium; parameters: scale not given: the % may be the effect or the level left
# Heart [6] = test: Ventricular action potential duration in spontaneously beating Langendorff-perfused guinea pig heart at 1 uM; format: functional, Cavia porcellus
# [7] = Negative inotropic activity assessed as decrease in developed tension in isolated guinea pig left atrium at 50 uM relative to control; format: functional, Cavia porcellus, Cardiac atrium; parameters: scale not given: the % may be the effect or the level left
# [8] = Activity against alternating current-induced arrhythmia in guinea pig left atrium at 50 uM; format: functional, Cavia porcellus, Cardiac atrium
# Heart [9] = test: Atrioventricular conduction time in spontaneously beating Langendorff-perfused guinea pig heart at 10 nM; format: functional, Cavia porcellus
# Heart [10] = test: Intraventricular conduction time in spontaneously beating Langendorff-perfused guinea pig heart at 10 nM; format: functional, Cavia porcellus
# Heart [11] = test: Intraventricular conduction time in spontaneously beating Langendorff-perfused guinea pig heart at 1 uM; format: functional, Cavia porcellus
# Heart [12] = test: Atrioventricular conduction time in spontaneously beating Langendorff-perfused guinea pig heart at 0.1 uM; format: functional, Cavia porcellus
# Heart [13] = test: Heart rate in spontaneously beating Langendorff-perfused guinea pig heart at 0.1uM; format: functional, Cavia porcellus; parameters: unit: beats/min
# Heart [14] = test: Intraventricular conduction time in spontaneously beating Langendorff-perfused guinea pig heart at 0.1 uM; format: functional, Cavia porcellus
# tissue or blood = conditions: Cavia porcellus, Cardiac atrium
# Heart [15] = test: Ventricular action potential duration in spontaneously beating Langendorff-perfused guinea pig heart at 0.1 uM; format: functional, Cavia porcellus
# Heart [16] = test: Heart rate in spontaneously beating Langendorff-perfused guinea pig heart at 1 uM; format: functional, Cavia porcellus; parameters: unit not given here
# Heart [17] = test: Intraventricular conduction time in spontaneously beating Langendorff-perfused guinea pig heart at 10 uM; format: functional, Cavia porcellus
# Heart [18] = test: Atrioventricular conduction time in spontaneously beating Langendorff-perfused guinea pig heart at 10 uM; format: functional, Cavia porcellus
# Heart [19] = test: Atrioventricular conduction time in spontaneously beating Langendorff-perfused guinea pig heart at 1 nM; format: functional, Cavia porcellus
# [20] = Activity against alternating current-induced arrhythmia in guinea pig left atrium; format: functional, tissue-based; conditions: Cavia porcellus, Cardiac atrium
# [21] = Negative chronotropic activity assessed as decrease in atrial rate in isolated guinea pig right atrium at 50 uM relative to control; format: functional, Cavia porcellus, Cardiac atrium; parameters: scale not given: the % may be the effect or the level left
# Heart [22] = test: Atrioventricular conduction time in spontaneously beating Langendorff-perfused guinea pig heart at 1 uM; format: functional, Cavia porcellus
# Heart [23] = test: Intraventricular conduction time in spontaneously beating Langendorff-perfused guinea pig heart at 1 nM; format: functional, Cavia porcellus
# [24] = Negative inotropic activity assessed as decrease in developed tension in isolated guinea pig left atrium at 0.1 uM relative to control; format: functional, Cavia porcellus, Cardiac atrium; parameters: scale not given: the % may be the effect or the level left
# [25] = Activity against alternating current-induced arrhythmia in guinea pig left atrium at 10 uM; format: functional, Cavia porcellus, Cardiac atrium
# [26] = Negative chronotropic activity assessed as decrease in atrial rate in isolated guinea pig right atrium at 10 uM relative to control; format: functional, Cavia porcellus, Cardiac atrium; parameters: scale not given: the % may be the effect or the level left
# [27] = Positive chronotropic activity in isolated guinea pig right atrium at 1 uM relative to control; format: functional, Cavia porcellus, Cardiac atrium
# Aorta [28] = test: Inhibition of calcium-induced contraction of potassium ion depolarized guinea pig aortic strips at 50 uM; format: functional; conditions: Cavia porcellus
# Heart [29] = test: Ventricular action potential duration in spontaneously beating Langendorff-perfused guinea pig heart at 1 nM; format: functional, Cavia porcellus
# Heart [30] = test: Heart rate in spontaneously beating Langendorff-perfused guinea pig heart at 10 nM; format: functional, Cavia porcellus; parameters: unit not given here
# Heart [31] = test: Ventricular action potential duration in spontaneously beating Langendorff-perfused guinea pig heart at 10 uM; format: functional, Cavia porcellus
# Heart [32] = test: Heart rate in spontaneously beating Langendorff-perfused guinea pig heart at 10 uM; format: functional, Cavia porcellus; parameters: unit not given here
# Heart [33] = test: Heart rate in spontaneously beating Langendorff-perfused guinea pig heart at 1 nM; format: functional, Cavia porcellus; parameters: unit not given here
# [34] = Negative inotropic activity assessed as decrease in developed tension in isolated guinea pig left atrium at 5 uM relative to control; format: functional, Cavia porcellus, Cardiac atrium; parameters: scale not given: the % may be the effect or the level left
# Heart [35] = test: Ventricular action potential duration in spontaneously beating Langendorff-perfused guinea pig heart at 10 nM; format: functional, Cavia porcellus
# [36] = Negative inotropic activity assessed as decrease in developed tension in isolated guinea pig left atrium at 10 uM relative to control; format: functional, Cavia porcellus, Cardiac atrium; parameters: scale not given: the % may be the effect or the level left
structure (smiles),measurement,setting,value
Cc1cc(NS(C)(=O)=O)cc(C)c1OC[C@H]1CCCN2CCCC[C@H]12,EC50,[1],140 nM
same,Activity,[2],64%
same,Activity,[3],5%
same,inhibition at 100 µM,Aorta [4],23%
same,Activity,[5],34%
C=C[C@H]1CN2CC[C@H]1C[C@@H]2[C@@H](O)c1ccnc2ccc(OC)cc12 [QUINIDINE],Activity,Heart [6],200 ms
same,Activity,[7],71%
same,Activity,[8],69%
same,Activity,Heart [9],54 ms
same,EC50,[1],3380 nM
same,Activity,Heart [10],27 ms
same,Activity,Heart [11],35 ms
same,Activity,Heart [12],57 ms
same,Activity,Heart [13],140
same,Activity,Heart [14],31 ms
same,EC50,tissue or blood,3990 nM
same,Activity,Heart [15],182 ms
same,Activity,Heart [16],123
same,Activity,Heart [17],39 ms
same,Activity,Heart [18],70 ms
same,Activity,Heart [19],53 ms
same,inhibition at 100 µM,Aorta [4],30%
same,EC50,[20],10300 nM
same,Activity,[21],86%
same,Activity,Heart [22],60 ms
same,Activity,Heart [23],25 ms
Cc1cc(C(=O)c2ccccc2)cc(C)c1OC[C@@H]1CCCN2CCCC[C@H]12,Activity,[7],94%
same,Activity,[8],64%
same,EC50,[1],160 nM
same,inhibition at 100 µM,Aorta [4],17%
same,EC50,[20],6750 nM
same,Activity,[21],41%
O=C(NC[C@@H]1CCCN2CCCC[C@H]12)c1ccc([N+](=O)[O-])cc1,EC50,[1],38 nM
same,Activity,[2],74%
same,Activity,[3],18%
same,inhibition at 100 µM,Aorta [4],18%
same,Activity,[5],28%
Cc1cccc(C)c1OC[C@H]1CCCN2CCCC[C@H]12,EC50,[1],14 nM
same,Activity,[24],68%
same,Activity,[25],35%
same,Activity,[26],13%
same,inhibition at 100 µM,Aorta [4],21%
Cc1cccc(C)c1NC(=O)C[C@@H]1CCCN2CCCC[C@H]12,Activity,[7],95%
same,Activity,[8],78%
same,Activity,[27],8%
same,EC50,[1],620 nM
same,inhibition at 100 µM,Aorta [4],5%
same,EC50,[20],5710 nM
Cc1cc(C(=O)c2ccccc2)cc(C)c1NC(=O)C[C@@H]1CCCN2CCCC[C@H]12,Activity,[7],88%
same,Activity,[8],55%
same,EC50,[1],760 nM
same,EC50,tissue or blood,3980 nM
same,inhibition at 100 µM,Aorta [4],31%
same,EC50,[20],4810 nM
same,Activity,[21],70%
CS(=O)(=O)Nc1ccc(C(=O)NC[C@@H]2CCCN3CCCC[C@H]23)cc1,Activity,[7],92%
same,EC50,[1],250 nM
same,Activity,[3],34%
same,inhibition at 100 µM,Aorta [4],1%
same,Activity,[5],4%
Cc1cc(C(=O)c2ccccc2)cc(C)c1OC[C@H]1CCCN2CCCC[C@H]12,Activity,[8],104%
same,inhibition at 50 µM,Aorta [28],38%
same,EC50,[1],160 nM
same,EC50,tissue or blood,6630 nM
same,Activity,[2],64%
same,EC50,[20],19900 nM
same,Activity,[21],75%
Cc1cc(N)cc(C)c1OC[C@@H]1CCCN2CCCC[C@H]12,Activity,Heart [6],194 ms
same,Activity,Heart [29],160 ms
same,Activity,Heart [30],190
same,Activity,Heart [9],60 ms
same,EC50,[1],290 nM
same,Activity,Heart [10],33 ms
same,Activity,Heart [11],32 ms
same,Activity,Heart [31],205 ms
same,Activity,Heart [12],64 ms
same,Activity,Heart [13],184
same,Activity,Heart [14],31 ms
same,Activity,Heart [15],182 ms
same,Activity,Heart [32],175
same,Activity,Heart [33],192
same,Activity,[3],166%
same,Activity,[34],83%
same,Activity,Heart [35],170 ms
same,Activity,Heart [16],180
same,Activity,Heart [17],32 ms
same,Activity,Heart [18],70 ms
same,Activity,Heart [19],58 ms
same,inhibition at 100 µM,Aorta [4],15%
same,Activity,[5],38%
same,EC50,[20],970 nM
same,Activity,Heart [22],66 ms
same,Activity,Heart [23],30 ms
CC(=O)Nc1ccc(C(=O)NC[C@@H]2CCCN3CCCC[C@H]23)cc1,Activity,Heart [6],195 ms
same,Activity,Heart [29],170 ms
same,Activity,[8],92%
same,Activity,Heart [30],175
same,Activity,Heart [9],65 ms
same,EC50,[1],59 nM
same,Activity,Heart [10],33 ms
same,Activity,[36],86%
same,Activity,Heart [11],34 ms
same,Activity,Heart [31],204 ms
same,Activity,Heart [12],70 ms
same,Activity,Heart [13],170
same,Activity,Heart [14],32 ms
same,Activity,Heart [15],190 ms
same,Activity,Heart [32],165
same,Activity,Heart [33],180
same,Activity,Heart [35],182 ms
same,Activity,Heart [16],166
same,Activity,Heart [17],33 ms
same,Activity,Heart [18],75 ms
same,Activity,Heart [19],62 ms
same,inhibition at 100 µM,Aorta [4],3%
same,EC50,[20],470 nM
same,Activity,[21],14%
same,Activity,Heart [22],72 ms
same,Activity,Heart [23],34 ms
